The text below walks through data of paper PMC5721475, “Characterization of sulfhydryl oxidase from Aspergillus tubingensis” (BMC Biochemistry, 2017).

For this experiment, the target named is T1, AtSOX (secreted sulfhydryl oxidase from Aspergillus tubingensis) (Aspergillus tubingensis, UniProt Z9JMF6K8Z8).
T1 construct: native secreted enzyme purified from culture medium; signal peptide removed; predicted N-terminus SSIPQ
T1 sequence (Z9JMF6K8Z8 20-393): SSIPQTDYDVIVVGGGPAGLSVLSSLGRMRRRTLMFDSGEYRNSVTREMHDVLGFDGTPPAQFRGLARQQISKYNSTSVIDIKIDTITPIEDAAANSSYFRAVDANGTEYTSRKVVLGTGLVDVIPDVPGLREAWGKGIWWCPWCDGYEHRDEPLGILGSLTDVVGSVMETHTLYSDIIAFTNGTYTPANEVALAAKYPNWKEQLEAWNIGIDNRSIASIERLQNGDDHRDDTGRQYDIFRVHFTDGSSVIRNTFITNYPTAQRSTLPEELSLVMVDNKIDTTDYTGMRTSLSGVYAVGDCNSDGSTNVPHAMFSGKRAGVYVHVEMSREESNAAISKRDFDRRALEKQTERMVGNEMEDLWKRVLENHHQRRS
The experiment in a line: UV-vis and fluorescence spectra; release of flavin by thermal denaturation. In kind it is binding. The following applies: non-covalently bound, copurified; 20 mM Tris-HCl pH 7.5, 20 °C.

On to `Cc1cc2nc3c(=O)[nH]c(=O)nc-3n(C[C@H](O)[C@H](O)[C@H](O)COP(=O)(O)OP(=O)(O)OC[C@H]3O[C@@H](n4cnc5c(N)ncnc54)[C@H](O)[C@@H]3O)c2cc1C` [FAD, flavin adenine dinucleotide], for which the “UV-vis and fluorescence spectra; release of flavin by thermal denaturation” value was “The enzyme had a non-covalently bound FAD as a cofactor”.
